Assays:
Pseudomonas fluorescens = experiment: Additive compatibility with microbial growth (growth slope by OD 620 nm); format: cell-based; settings: additive 0.01-5 %, exposed 4 hours at 16° C., then tryptic soy broth 30° C., slope compared to 0% sample
Bacillus subtilis = experiment: as above; format: cell-based; settings: additive 0.01-5 %, exposed 4 hours at 16° C., then tryptic soy broth 30° C., slope compared to 0% sample
Bacillus firmus = experiment: as above; format: cell-based; settings: additive 0.01-5 %, exposed 4 hours at 16° C., then tryptic soy broth 30° C., slope compared to 0% sample
[1] = tested on: Bacillus amyloliquefaciens; experiment: as above; format: cell-based; settings: additive 0.01-5 %, exposed 4 hours at 16° C., then tryptic soy broth 30° C., slope compared to 0% sample
[2] = tested on: Powdery Mildew (Podosphaera xanthii); experiment: Spray trial on pumpkin plants, Powdery Mildew infection; format: in vivo; settings: in words
Description: Eight solutions were prepared as described in Table 5a. These solutions were sprayed on pumpkin plants showing no signs of Powdery Mildew (Podosphaera xanthii). […] Six of the solutions included methyl soyate.
Four applications were made over a month to the same pumpkin plants. At the end of the month, the infection rates of Powdery Mildew were evaluated by comparing to untreated pumpkin plants.

Compound | Influence of additive on microbial growth slope (compatibility), Pseudomonas fluorescens (Pseudomonas fluorescens) | Influence of additive on microbial growth slope (compatibility), Bacillus subtilis (Bacillus subtilis) | Influence of additive on microbial growth slope (compatibility), Bacillus firmus (Bacillus firmus) | Influence of additive on microbial growth slope (compatibility), Bacillus amyloliquefaciens [1] | Control of Powdery Mildew (lower %-Infection) when additive was added to Serifel Biofungicide spray solutions [2]
Butyl alcohol POP 31 POE 31 [vii-7] | N | N | N | N | 
Sorbitan monolaurate POE 20 [xii-2] | S | S | S | S | 
Olleyl-Cetyl alcohol (90% Oleyl) [xvi-3] | S | S | S | S | 
Sodium Lauryl ether sulfate [xvii-1] | S | S | S | S | 
Castor Oil POE 40 [vi-4] |  | N | N | N | 
Tridecyl alcohol POE 9 [xi-2] | S | S | S | S | 
C12-C14 dimethyl amide [xv-3] |  | S | S | S | 
PEG 400 monolaurate [v-1] | S | N |  | N | 
Sodium Tallowate [xviii-2] | S |  |  |  | 
Olleyl-Cetyl alcohol (80% Oleyl) [xvi-2] | N | N | S | N | 
Soybean Oil POE 30 [vi-2] | N | S | N | S | 
C12-C16 alkylpolyglycoside [iv-2] | N | S | S | S | 
Soybean Oil POE 10 [vi-1] | E (E represents an Enhancing result) | N | S | N | 
Sorbitan monooleate POE 20 [xii-3] | N | N | S | N | 
C8-C10 alkylpolyglycoside [iv-1] | N | N | N | N | 
Tallow amine POE20 [xiii-2] |  | S | S | S | 
Tridecyl alcohol POE 3 [xi-1] | S | S | S | S | 
C8-C10 fatty alcohol [xvi-1] | S | S | S | S | 

Compound | Influence of additive on microbial growth slope (compatibility), Pseudomonas fluorescens (Pseudomonas fluorescens) | Influence of additive on microbial growth slope (compatibility), Bacillus subtilis (Bacillus subtilis) | Influence of additive on microbial growth slope (compatibility), Bacillus firmus (Bacillus firmus) | Influence of additive on microbial growth slope (compatibility), Bacillus amyloliquefaciens [1] | Control of Powdery Mildew (lower %-Infection) when additive was added to Serifel Biofungicide spray solutions [2]
Tridecyl alcohol POE 10 phosphate ester [xix-1] | S | S | S | S | 
Castor Oil POE 16 [vi-3] | N | N | N | N | 
Tallow amine POE15 [xiii-1] | E (E represents an Enhancing result) | S | S | S | 
2-propylheptanol Alkoxylate with 7 moles EO [xi-5] | S | S | S | S | 
Sorbitan monooleate [xii-1] | E (E represents an Enhancing result) | S | S | S | 
Sorbitan trioleate POE 20 [xii-4] | S | N | S | S | 
2-propylheptanol POE 5 [xi-3] | S | S | S | S | 
Soya fatty acid methyl ester [ii-3] | N | N | N | E (E represents an Enhancing result) | improved control
C12-C18 fatty acid methyl ester [ii-2] | N | N | S | N | 
CCCCCCCC/C=C\CCCCCCCC(=O)OC [ii-4, Oleic acid methyl ester] | N | N | N | E (E represents an Enhancing result) | 
Dibutyl Naphthalene Sulfonate, Sodium [viii-1] |  | E (E represents an Enhancing result) |  | E (E represents an Enhancing result) | 
Magnesium Oleate [xviii-1] | S | S | S |  | 
PEG 400 monooleate [v-2] | S | N |  | N | 
2-propylheptanol Alkoxylate with 5 moles EO [xi-4] | S | S | S | S | 
CC(O)C(=O)N(C)C (stereo not shown) [xv-1, Dimethyl lactamide] | N | S | N | S | 
C8-C10 dimethyl amide [xv-2] | S | S | S | S | 
Isodecyl alcohol POE6 phosphate ester [xix-3] | S | S | S | S | 
